Assay results reported in paper PMC9727064, “Performance assessment and economic analysis of a human Liver-Chip for predictive toxicology” (Communications Medicine, 2022).
Entries after “also recorded” stand apart in the source; their conditions may differ.

Key:
[1] = test system: human Liver-Chip (hepatocyte layer); test: Liver-Chip immunofluorescence imaging (caspase 3/7, TMRM, AdipoRed/LipidTOX); format: cell-based; conditions: for Immunofluorescence staining result in words: caspase 3/7 (apoptosis) or TMRM (mitotoxicity), 7 days; for IF imaging Donor 1 / IF imaging Donor 2 / IF imaging Donor 3: matched pair analysis
Method: Chips were detached from pods and washed once with PBS. […] Afterwards, chips were washed with PBS and stored at 4 °C until staining. Following fixation, chips corresponding to low, medium, and high concentrations from each group were cut in half with a razor blade perpendicular to the co-culture channels. One half was used in the following staining protocol, while the other half was stored for future staining. All stains and washes utilized the bubble method, in which a small amount of air is flowed through the channel prior to bulk wash media to prevent a liquid-liquid dilution of the staining solution. […] Following 15 minutes of incubation at room temperature, each channel was washed with 200 µL of PBS (alternating channels, 2× for top and 3× for bottom). As an alternative lipid accumulation marker, 100 µL of HCS LipidTOX Deep Red (ThermoFisher, H34477) was diluted 1:1000 v/v in PBS with NucBlue counterstain and added to the top channel. After a 30 min incubation at room temperature, the chips were again allowed to reach room temperature before the channels were alternatively washed with 200 µL of PBS, the bottom channel undergoing three washes and the top channel undergoing two. Chips were then imaged using the Opera Phenix. Following lipid and DAPI staining and imaging, chips were stained with a […] (MRP2) antibody to visualize the bile canalicular structures characteristic of healthy Liver-Chips. […] Then, each channel was washed with 200 µL of PBS (alternating channels, 2× for top and 3× for bottom). […] Next, primary antibody Mouse anti-MRP2 (Abcam, ab3373) was prepared 1:100 in the original blocking buffer, diluted 1:4 in PBS. 100 µL of solution was added to each channel, and chips were stored overnight at 4 °C. The following day, each channel was washed with 200 µL of PBS (alternating channels, 2× for top and 3× for bottom). […] 100 µL of solution was added to each channel and chips incubated at room temperature, protected from light, for two hours. Then, each channel was washed with 200 µL of PBS (alternating channels, 2× for top and 3× for bottom). Chips were imaged immediately or stored at 4 °C until ready for imaging on the Opera Phenix. Chip replicates designated for live cell imaging were washed with PBS utilizing the bubble method. Chips were then cut in half perpendicular to the co-culture channels. […] The bottom chips halves were stained with NucBlue (Thermo) to visualize nuclei and Tetramethylrhodamine, methyl ester (TMRM) (ThermoFisher, I34361) to visualize active mitochondria. This staining panel was prepared in PBS with 5% FBS, with NucBlue at 2 drops per mL and TMRM at a 1:1000 ratio in original blocking buffer, diluted 1:4 in PBS. Chips were incubated in the dark at 37 °C for 30 min, and then each channel was washed with 200 µL of PBS (alternating channels, 2× for top and 3× for bottom). The chips were kept at 37 °C, protected from light, until ready for imaging with the Opera Phenix. Fluorescent confocal image acquisition was performed using the Opera Phenix High-Content Screening System and Harmony 4.9 Imaging and Analysis Software (PerkinElmer). Before acquisition, the Phenix internal environment was set to 37 °C and 5% CO2. […] Whole chips were placed directly into each slot, while top and bottom half chips were matched and combined in one chip slot. Chips were aligned flush with the adapter and one another. Any bubbles identified from visual inspection were washed out with PBS. Once ready, the stained chips were covered with transparent plate film to seal channel ports and loaded into the Phenix. […] Z-stacks were generated with 3.6 µm between slices for 28–32 planes so that the epithelium was located around the center of the stack. […] Raw images from fixed and live imaging were exported in TIFF format from the Harmony software. Using scripts written for FIJI (ImageJ), TIFFs across three color channels and multiple z-stacks were compiled into composite images for each field of view in each chip. […]

[2] = test system: 3D spheroid cultures of primary human hepatocytes; conditions: cited from earlier work
[3] = test system: human Liver-Chip (Kupffer cell activation); test: IL-6 and TNF-alpha in Liver-Chip effluent (MSD U-PLEX); conditions: effluent of Liver-Chips from three donors, no inflammatory stimulant
Method: Samples were added to plates manually at a 1:2 dilution. Plates were read for cytokine release on the MESO QuickPlex SQ 120 (Meso Scale Discoveries).

[4] = day 7 post-drug administration, hepatocyte layer, top channel

Row | Structure (SMILES) | Immunofluorescence staining result in words [1] | Immunofluorescent findings, donor one (Supplementary Figure 3) [1, 4] | Immunofluorescent findings, donor three (Supplementary Figure 3) [1, 4] | IF imaging Donor 1 [1] | IF imaging Donor 2 [1] | IF imaging Donor 3 [1] | Spheroid false negative ([2]; Yes/No, also No for drugs not tested in spheroid) | Toxicity detection in 3D hepatic spheroids ([2]; threshold 50) | IL-6 and TNFα cytokine production after treatment [3] | Immunofluorescent findings, donor two (Supplementary Figure 3) ([1]; day 7 post-drug administration, hepatocyte layer, top channel, donor two)
1 | C[C@H]1COc2c(N3CCN(C)CC3)c(F)cc3c(=O)c(C(=O)O)cn1c23 [Levofloxacin] | did not cause cellular apoptosis | No findings | No findings | No findings | No findings | No findings | Yes | not detected as toxic drugs in spheroids | no concentration-dependent change in cytokine levels; also recorded: did not detect any concentration-related change; also recorded: unable to see any concentration-dependent increase in cytokine production | –
2 | N[C@@H]1[C@H]2CN(c3nc4c(cc3F)c(=O)c(C(=O)O)cn4-c3ccc(F)cc3F)C[C@@H]12 [Trovafloxacin] | concentration-dependent increases in caspase 3/7 staining | Apoptosis | Apoptosis | Apoptosis | Apoptosis | Apoptosis | – | – | no concentration-dependent change in cytokine levels; also recorded: did not detect any concentration-related change; also recorded: unable to see any concentration-dependent increase in cytokine production | Apoptosis
